Laboratory results: the supplement of paper PMC10307832

Key:
Assay in all cases: relative viability (nuclei count vs DMSO), 5 days (fraction); higher = more cells survive
Omipalisib + Phenformin = compound: COc1ncc(-c2ccc3nccc(-c4ccnnc4)c3c2)cc1NS(=O)(=O)c1ccc(F)cc1F [Omipalisib] + N=C(N)NC(=N)NCCc1ccccc1 [Phenformin] (partner 250 µM)
Procedure, shortened: (§1)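 For relative viability, nuclei counts in treated wells were divided by those in vehicle wells. Lung cancer cell lines had been pin-tool dosed in 1536-well plates the day after seeding and cultured for 5 days, then fixed and stained in one step (final 0.05% Triton X-100, 1% formaldehyde, 1 ug/ml Hoechst) and imaged at 4×. Doses were one drug alone or a fixed anchor-drug dose plus five library-drug doses (not always all listed) in √10 steps, and values are duplicate-plate medians.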

Omipalisib + Lapatinib = compound: COc1ncc(-c2ccc3nccc(-c4ccnnc4)c3c2)cc1NS(=O)(=O)c1ccc(F)cc1F [Omipalisib] + CS(=O)(=O)CCNCc1ccc(-c2ccc3ncnc(Nc4ccc(OCc5cccc(F)c5)c(Cl)c4)c3c2)o1 [Lapatinib] (partner 2 µM)
Procedure, shortened: as §1

Omipalisib + Bortezomib = compound: COc1ncc(-c2ccc3nccc(-c4ccnnc4)c3c2)cc1NS(=O)(=O)c1ccc(F)cc1F [Omipalisib] + CC(C)C[C@H](NC(=O)[C@H](Cc1ccccc1)NC(=O)c1cnccn1)B(O)O [Bortezomib] (partner 0.002 µM)
Procedure, shortened: as §1

| Cell Line | relative viability (Omipalisib + Phenformin; first compound 0.0003 µM) | relative viability (Omipalisib + Phenformin; first compound 0.003 µM) | relative viability (Omipalisib + Phenformin; first compound 0.03 µM) | relative viability (Omipalisib + Lapatinib; first compound 0.0003 µM) | relative viability (Omipalisib + Lapatinib; first compound 0.003 µM) | relative viability (Omipalisib + Lapatinib; first compound 0.03 µM) | relative viability (Omipalisib + Bortezomib; first compound 0.0003 µM) | relative viability (Omipalisib + Bortezomib; first compound 0.003 µM) | relative viability (Omipalisib + Bortezomib; first compound 0.03 µM) |
| --- | --- | --- | --- | --- | --- | --- | --- | --- | --- |
| NCI-H1651 | 0.274 | 0.307 | 0.214 | 0.538 | 0.65 | 0.44 | 0.872 | 0.86 | 0.747 |
| LCLC-103H | 0.319 | 0.29 | 0.174 |  |  |  | 0.943 | 0.891 | 0.732 |
| LXF-289 | 0.505 | 0.416 | 0.396 | 0.894 | 0.956 | 0.785 | 1.03 | 0.99 | 0.808 |
| NCI-H2023 | 0.379 | 0.275 | 0.164 | 0.684 | 0.374 | 0.179 | 0.906 | 0.487 | 0.301 |
| NCI-H650 | 0.443 | 0.401 | 0.332 | 0.816 | 0.759 | 0.499 | 0.749 | 0.501 | 0.293 |
| NCI-H1395 | 0.414 | 0.403 | 0.393 | 0.983 | 0.783 | 0.608 |  |  |  |
| NCI-H322M | 0.739 | 0.57 | 0.453 | 0.53 | 0.553 | 0.415 | 1.28 | 1.01 | 1.03 |
| NCI-H23 | 0.773 | 0.635 | 0.576 | 0.911 | 0.862 | 0.501 | 0.877 | 0.684 | 0.306 |
| ABC-1 | 0.221 | 0.234 | 0.224 | 0.994 | 1.02 | 0.769 | 0.324 | 0.299 | 0.246 |
| NCI-H3122 | 0.371 | 0.459 | 0.314 | 1.03 | 1.05 | 0.786 | 1.01 | 1.04 | 0.818 |
| EPLC-272H | 0.294 | 0.253 | 0.193 | 0.908 | 0.535 | 0.562 | 1.08 | 0.732 | 0.611 |
| NCI-H1793 | 0.372 | 0.22 | 0.188 | 0.614 | 0.425 | 0.214 |  |  |  |
| COR-L 105 | 0.468 | 0.458 | 0.289 | 0.37 | 0.334 | 0.313 | 0.89 | 0.656 | 0.411 |
| LK-2 | 0.532 | 0.128 | 0.144 | 0.698 | 0.502 | 0.306 |  |  |  |
| NCI-H1792 | 0.351 | 0.115 | 0.0784 | 0.864 | 0.88 | 0.301 | 0.872 | 0.927 | 0.398 |
| NCI-H2347 | 0.329 | 0.226 | 0.244 | 0.855 | 0.902 | 0.81 | 1.02 | 1.06 | 0.663 |
| LOU-NH91 | 0.738 | 0.522 | 0.504 | 0.708 | 0.53 | 0.511 | 0.543 | 0.517 | 0.453 |
| NCI-H1355 | 0.433 | 0.351 | 0.277 | 0.942 | 0.665 | 0.54 | 1.16 | 0.925 | 0.375 |

| Cell Line | relative viability (Omipalisib + Phenformin; first compound 0.0003 µM) | relative viability (Omipalisib + Phenformin; first compound 0.003 µM) | relative viability (Omipalisib + Phenformin; first compound 0.03 µM) | relative viability (Omipalisib + Lapatinib; first compound 0.0003 µM) | relative viability (Omipalisib + Lapatinib; first compound 0.003 µM) | relative viability (Omipalisib + Lapatinib; first compound 0.03 µM) | relative viability (Omipalisib + Bortezomib; first compound 0.0003 µM) | relative viability (Omipalisib + Bortezomib; first compound 0.003 µM) | relative viability (Omipalisib + Bortezomib; first compound 0.03 µM) |
| --- | --- | --- | --- | --- | --- | --- | --- | --- | --- |
| NCI-H2085 | 0.869 | 0.429 | 0.303 | 0.838 | 0.571 | 0.382 | 0.953 | 0.98 | 0.517 |
| SK-MES-1 | 0.66 | 0.618 | 0.428 | 0.447 | 0.308 | 0.364 |  |  |  |
| SW 1573 | 0.238 | 0.227 | 0.169 | 0.905 | 0.786 | 0.638 | 0.885 | 0.818 | 0.411 |
| BEN | 0.259 | 0.277 | 0.27 | 0.566 | 0.444 | 0.364 | 0.773 | 0.527 | 0.46 |
| ChaGo-K-1 | 0.486 | 0.401 | 0.406 |  |  |  | 1.06 | 0.993 | 1.04 |
| EKVX | 0.228 | 0.254 | 0.15 | 0.198 | 0.17 | 0.131 | 1.01 | 0.777 | 0.401 |
| HARA | 0.539 | 0.334 | 0.332 | 0.613 | 0.659 | 0.326 | 1.16 | 1.15 | 0.78 |
| PC-14 | 0.537 | 0.639 | 0.368 | 0.308 | 0.228 | 0.162 | 0.822 | 0.991 | 0.646 |
| NCI-H520 | 0.405 | 0.209 | 0.2 | 0.778 | 0.581 | 0.22 | 0.465 | 0.254 | 0.171 |
| HCC-78 | 0.683 | 0.571 | 0.282 | 0.329 | 0.567 | 0.386 | 0.338 | 0.32 | 0.252 |
| COR-L23 | 0.461 | 0.508 | 0.406 | 1.01 | 0.893 | 0.517 | 1 | 0.934 | 0.63 |
| LU99A | 0.802 | 0.695 | 0.578 | 0.908 | 0.71 | 0.346 | 1.01 | 0.728 | 0.495 |
| PC-3 [JPC-3] | 0.475 | 0.477 | 0.414 | 0.457 | 0.367 | 0.318 | 0.788 | 0.888 | 0.909 |
| NCI-H358 | 0.259 | 0.211 | 0.145 | 0.388 | 0.367 | 0.325 |  |  |  |
| NCI-H838 | 0.566 | 0.397 | 0.195 | 0.942 | 0.683 | 0.31 | 0.743 | 0.652 | 0.234 |
| HCC-827 | 0.402 | 0.343 | 0.271 | 0.192 | 0.158 | 0.187 | 1.06 | 1.17 | 0.828 |
| NCI-H2087 | 0.43 | 0.267 | 0.289 | 1.34 | 0.955 | 0.747 | 0.851 | 0.867 | 0.736 |
